Test results as given in patent publication US20180289678A1, “PHARMACEUTICAL COMPOSITION, PHARMACEUTICAL DOSAGE FORM, PROCESS FOR THEIR PREPARATION, METHODS FOR TREATING AND USES THEREOF” (Boehringer Ingelheim International GmbH, priority 2009, published 2018).
Read-outs that look alike come from different tables or passages of the source.

Test: Study .3: single dose, cross-over, food effect study in healthy volunteers, pharmacokinetic parameters
Format: in vivo, human
Details: 50 mg single dose
Method: 5. Pharmacokinetic Parameters
The pharmacokinetic parameters of pharmaceutical compositions and pharmaceutical dosage forms are assessed in healthy volunteer and patient populations. In the studies shown below, the participants fasted on the day of sampling, unless as otherwise stated (see for example study .3). The active substance in the studies below is the compound (I.9), preferably in the crystalline form (I.9X), and the dose of active ingredient is indicated in mg.
For the quantification of plasma concentrations of the active ingredient, 2.7 mL of blood was collected and transferred into an EDTA (ethylendiaminetetraacetic acid)-anticoagulant blood drawing tube. The EDTA-anticoagulated blood samples were centrifuged immediately after collection. Centrifugation lasted for about 10 minutes (at about 2,000×gf to 4,000×gf) at 4-8° C. or within 30 minutes while stored on ice. Concentrations of active substance in EDTA human plasma samples were quantitated using a HPLC/MS/MS method. The assay method comprised a solid phase supported liquid-liquid extraction of human plasma coupled with HPLC/MS/MS determination of the extracted samples. The HPLC/MS/MS assay was validated for the range of 1.11 to 1110 nM in human plasma.
Study .3: Single dose, cross-over, food effect study in a healthy volunteer population of N=14. Healthy volunteers were administered tablets as described in Example 10 (section Examples of formulations).
AUC0-inf:area under the concentration-time curve of the analyte in plasma over the time interval from 0 extrapolated to infinity.
Cmax: maximum concentration of the analyte in plasma.
Tmax: time from dosing to maximum concentration.

OC[C@H]1O[C@@H](c2ccc(Cl)c(Cc3ccc(O[C@H]4CCOC4)cc3)c2)[C@H](O)[C@@H](O)[C@@H]1O [Compound (I.9), 1-chloro-4-(β-D-glucopyranos-1-yl)-2-[4-((S)-tetrahydrofuran-3-yloxy)-benzyl]-benzene]
AUC0-inf Max (Study .3/fasted): 14.1 µM·h | AUC0-inf Min (Study .3/fasted): 6.45 µM·h | AUC0-inf,norm Max (Study .3/fasted): 282 nmol·h/L/mg | AUC0-inf,norm Median (Study .3/fasted): 159 nmol·h/L/mg | AUC0-inf,norm Min (Study .3/fasted): 129 nmol·h/L/mg | AUC0-inf,norm gMean (Study .3/fasted): 166 nmol·h/L/mg | Cmax,norm Max (Study .3/fasted): 40 nmol/L/mg | Cmax,norm Median (Study .3/fasted): 20 nmol/L/mg | Cmax,norm Min (Study .3/fasted): 18 nmol/L/mg | Cmax,norm gMean (Study .3/fasted): 23 nmol/L/mg | tmax Max (Study .3/fasted): 4.07 h | tmax Min (Study .3/fasted): 45 min | Cmax (Study .3/fasted, read-out: Cmax Max): 2020 nM | Cmax (Study .3/fasted, read-out: Cmax Min): 878 nM | AUC0-inf Max (Study .3/fed): 10.8 µM·h | AUC0-inf Min (Study .3/fed): 5.06 µM·h | AUC0-inf,norm Max (Study .3/fed): 216 nmol·h/L/mg | AUC0-inf,norm Median (Study .3/fed): 150 nmol·h/L/mg | AUC0-inf,norm Min (Study .3/fed): 101 nmol·h/L/mg | AUC0-inf,norm gMean (Study .3/fed): 149 nmol·h/L/mg | Cmax,norm Max (Study .3/fed): 21 nmol/L/mg | Cmax,norm Median (Study .3/fed): 17 nmol/L/mg | Cmax,norm Min (Study .3/fed): 9 nmol/L/mg | Cmax,norm gMean (Study .3/fed): 16 nmol/L/mg | tmax Max (Study .3/fed): 4.00 h | tmax Min (Study .3/fed): 60 min | Cmax (Study .3/fed, read-out: Cmax Max): 1070 nM | Cmax (Study .3/fed, read-out: Cmax Min): 436 nM | AUC(0-inf) (human, plasma, oral, 50 mg, Study .3/fasted, read-out: AUC0-inf Mean): 8.51 µM·h | AUC(0-inf) (human, plasma, oral, 50 mg, Study .3/fasted, read-out: AUC0-inf Median): 7.93 µM·h | AUC(0-inf) (human, plasma, oral, 50 mg, Study .3/fasted, read-out: AUC0-inf gMean): 8.31 µM·h | Cmax (human, plasma, oral, 50 mg, Study .3/fasted, read-out: Cmax Mean): 1180 nM | Cmax (human, plasma, oral, 50 mg, Study .3/fasted, read-out: Cmax Median): 1010 nM | Cmax (human, plasma, oral, 50 mg, Study .3/fasted, read-out: Cmax gMean): 1140 nM | Tmax (human, plasma, oral, 50 mg, Study .3/fasted, read-out: tmax Mean): 1.53 h | Tmax (human, plasma, oral, 50 mg, Study .3/fasted, read-out: tmax Median): 1.02 h | Tmax (human, plasma, oral, 50 mg, Study .3/fasted, read-out: tmax gMean): 1.29 h | AUC(0-inf) (human, plasma, oral, 50 mg, Study .3/fed, read-out: AUC0-inf Mean): 7.59 µM·h | AUC(0-inf) (human, plasma, oral, 50 mg, Study .3/fed, read-out: AUC0-inf Median): 7.49 µM·h | AUC(0-inf) (human, plasma, oral, 50 mg, Study .3/fed, read-out: AUC0-inf gMean): 7.46 µM·h | Cmax (human, plasma, oral, 50 mg, Study .3/fed, read-out: Cmax Mean): 824 nM | Cmax (human, plasma, oral, 50 mg, Study .3/fed, read-out: Cmax Median): 830 nM | Cmax (human, plasma, oral, 50 mg, Study .3/fed, read-out: Cmax gMean): 806 nM | Tmax (human, plasma, oral, 50 mg, Study .3/fed, read-out: tmax Mean): 2.46 h | Tmax (human, plasma, oral, 50 mg, Study .3/fed, read-out: tmax Median): 2.48 h | Tmax (human, plasma, oral, 50 mg, Study .3/fed, read-out: tmax gMean): 2.18 h
